The text below walks through data of patent US9125913B2, “Bcl-2-selective apoptosis-inducing agents for the treatment of cancer and immune diseases” (AbbVie Inc., priority 2008, dated 2015).

The experiment relates to GST-Bcl-2. As to the kind of experiment: TR-FRET binding assay, Bcl-2. To be noted: TR-FRET Ki values. The method, boiled down:
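Ki values come from Wang's competitive-binding equation applied to TR-FRET signal (excitation 340/35 nm; emission 520/525 nm F-Bak peptide, 495/510 nm Tb antibody). Protein, probe and antibody incubated with compound 3 h at room temperature; dilution series began at 50 μM as 2× stock in 10% DMSO.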
(In general: In TR-FRET formats the signal depends on donor and acceptor labels being close together.)
In the case of `CC1(C)CCC(CN2CCN(c3ccc(C(=O)NS(=O)(=O)c4ccc(NCC5CN(C6CC6)CCO5)c([N+](=O)[O-])c4)c(Oc4cccc5[nH]ncc45)c3)CC2)=C(c2ccc(Cl)cc2)C1` (stereo not drawn) [EXAMPLE 411, 4-(4-{[2-(4-chlorophenyl)-4,4-dimethylcyclohex-1-en-1-yl]methyl}piperazin-1-yl)-N-[(4-{[(4-cyclopropylmorpholin-2-yl)methyl]amino}-3-nitrophenyl)sulfonyl]-2-(1H-indazol-4-yloxy)benzamide], the “Binding selectivity ratio (Bcl-XL Ki/Bcl-2 Ki)” value (from here on “Binding selectivity ratio”) stood at 2352.

Regarding `CC1(C)CCC(CN2CCN(c3ccc(C(=O)NS(=O)(=O)c4ccc(NCC5CCC(F)(F)CC5)c([N+](=O)[O-])c4)c(Oc4cccc5[nH]ncc45)c3)CC2)=C(c2ccc(Cl)cc2)C1` [EXAMPLE 412, 4-(4-{[2-(4-chlorophenyl)-4,4-dimethylcyclohex-1-en-1-yl]methyl}piperazin-1-yl)-N-[(4-{[(4,4-difluorocyclohexyl)methyl]amino}-3-nitrophenyl)sulfonyl]-2-(1H-indazol-4-yloxy)benzamide], the “Binding selectivity ratio” value amounted to 6545.

With `CC1(C)CCC(CN2CCN(c3ccc(C(=O)NS(=O)(=O)c4cnc(NCC5(F)CCOCC5)c(Cl)c4)c(Oc4cccc5[nH]ncc45)c3)CC2)=C(c2ccc(Cl)cc2)C1` [EXAMPLE 413, N-[(5-chloro-6-{[(4-fluorotetrahydro-2H-pyran-4-yl)methyl]amino}pyridin-3-yl)sulfonyl]-4-(4-{[2-(4-chlorophenyl)-4,4-dimethylcyclohex-1-en-1-yl]methyl}piperazin-1-yl)-2-(1H-indazol-4-yloxy)benzamide], the “Binding selectivity ratio” value was determined as 803.8.

As for `CC1(C)CCC(CN2CCN(c3ccc(C(=O)NS(=O)(=O)c4ccc(NCC5CN(CC(F)F)CCO5)c([N+](=O)[O-])c4)c(Oc4cccc5[nH]cnc45)c3)CC2)=C(c2ccc(Cl)cc2)C1` (stereo not drawn) [EXAMPLE 415, 2-(1H-benzimidazol-4-yloxy)-4-(4-{[2-(4-chlorophenyl)-4,4-dimethylcyclohex-1-en-1-yl]methyl}piperazin-1-yl)-N-{[4-({[4-(2,2-difluoroethyl)morpholin-2-yl]methyl}amino)-3-nitrophenyl]sulfonyl}benzamide], the “Binding selectivity ratio” value was determined as 17326.89211.

Regarding `CC1(C)CCC(CN2CCN(c3ccc(C(=O)NS(=O)(=O)c4ccc(NC5CCN(C6CCOCC6)CC5)c([N+](=O)[O-])c4)c(Oc4cccc5[nH]cnc45)c3)CC2)=C(c2ccc(Cl)cc2)C1` [EXAMPLE 417, 2-(1H-benzimidazol-4-yloxy)-4-(4-{[2-(4-chlorophenyl)-4,4-dimethylcyclohex-1-en-1-yl]methyl}piperazin-1-yl)-N-({3-nitro-4-[(1-tetrahydro-2H-pyran-4-ylpiperidin-4-yl)amino]phenyl}sulfonyl)benzamide], the “Binding selectivity ratio” value is reported as 87.06.

Turning to `CN1CCC(Nc2ccc(S(=O)(=O)NC(=O)c3ccc(N4CCN(CC5=C(c6ccc(Cl)cc6)CC(C)(C)CC5)CC4)cc3Oc3cccc4[nH]cnc34)cc2[N+](=O)[O-])CC1` [EXAMPLE 418, 2-(1H-benzimidazol-4-yloxy)-4-(4-{[2-(4-chlorophenyl)-4,4-dimethylcyclohex-1-en-1-yl]methyl}piperazin-1-yl)-N-({4-[(1-methylpiperidin-4-yl)amino]-3-nitrophenyl}sulfonyl)benzamide], the “Binding selectivity ratio” value was 404.7.

For the compound `CC1(C)CCC(CN2CCN(c3ccc(C(=O)NS(=O)(=O)c4cnc(OCC5(F)CCN(CC#N)CC5)c(Cl)c4)c(Oc4cccc5[nH]ncc45)c3)CC2)=C(c2ccc(Cl)cc2)C1` [EXAMPLE 419, N-[(5-chloro-6-{[1-(cyanomethyl)-4-fluoropiperidin-4-yl]methoxy}pyridin-3-yl)sulfonyl]-4-(4-{[2-(4-chlorophenyl)-4,4-dimethylcyclohex-1-en-1-yl]methyl}piperazin-1-yl)-2-(1H-indazol-4-yloxy)benzamide], the “Binding selectivity ratio” value was found to be 1071.

With `CC1(C)CCC(CN2CCN(c3ccc(C(=O)NS(=O)(=O)c4cnc(OCC5CCOC5)c(Cl)c4)c(Oc4cccc5[nH]ncc45)c3)CC2)=C(c2ccc(Cl)cc2)C1` (stereo not drawn) [EXAMPLE 420, 4-(4-{[2-(4-chlorophenyl)-4,4-dimethylcyclohex-1-en-1-yl]methyl}piperazin-1-yl)-N-{[5-chloro-6-(tetrahydrofuran-3-ylmethoxy)pyridin-3-yl]sulfonyl}-2-(1H-indazol-4-yloxy)benzamide], the “Binding selectivity ratio” value turned out to be 1153.

`CC1(C)CCC(CN2CCN(c3ccc(C(=O)NS(=O)(=O)c4cnc(OC[C@H]5CC[C@H](O)CC5)c(Cl)c4)c(Oc4cccc5[nH]ncc45)c3)CC2)=C(c2ccc(Cl)cc2)C1` [EXAMPLE 421, Trans-N-({5-chloro-6-[(4-hydroxycyclohexyl)methoxy]pyridin-3-yl}sulfonyl)-4-(4-{[2-(4-chlorophenyl)-4,4-dimethylcyclohex-1-en-1-yl]methyl}piperazin-1-yl)-2-(1H-indazol-4-yloxy)benzamide]: the “Binding selectivity ratio” value is on record as 2090.

With `CC1(C)CCC(CN2CCN(c3ccc(C(=O)NS(=O)(=O)c4cnc(O[C@@H]5CCN(CC(F)F)C5)c(Cl)c4)c(Oc4cccc5[nH]ncc45)c3)CC2)=C(c2ccc(Cl)cc2)C1` [EXAMPLE 422, N-[(5-chloro-6-{[(3R)-1-(2,2-difluoroethyl)pyrrolidin-3-yl]oxy}pyridin-3-yl)sulfonyl]-4-(4-{[2-(4-chlorophenyl)-4,4-dimethylcyclohex-1-en-1-yl]methyl}piperazin-1-yl)-2-(1H-indazol-4-yloxy)benzamide], the “Binding selectivity ratio” value is reported as 4073.

Regarding `CN(C)CC(=O)N1CCO[C@H](COc2ncc(S(=O)(=O)NC(=O)c3ccc(N4CCN(CC5=C(c6ccc(Cl)cc6)CC(C)(C)CC5)CC4)cc3Oc3cccc4[nH]cnc34)cc2Cl)C1` [EXAMPLE 423, 2-(1H-benzimidazol-4-yloxy)-N-[(5-chloro-6-{[(2S)-4-(N,N-dimethylglycyl)morpholin-2-yl]methoxy}pyridin-3-yl)sulfonyl]-4-(4-{[2-(4-chlorophenyl)-4,4-dimethylcyclohex-1-en-1-yl]methyl}piperazin-1-yl)benzamide], the “Binding selectivity ratio” value came to 756.62.

As for `CN(C)CC(=O)N1CCO[C@@H](COc2ncc(S(=O)(=O)NC(=O)c3ccc(N4CCN(CC5=C(c6ccc(Cl)cc6)CC(C)(C)CC5)CC4)cc3Oc3cccc4[nH]cnc34)cc2Cl)C1` [EXAMPLE 424, 2-(1H-benzimidazol-4-yloxy)-N-[(5-chloro-6-{[(2R)-4-(N,N-dimethylglycyl)morpholin-2-yl]methoxy}pyridin-3-yl)sulfonyl]-4-(4-{[2-(4-chlorophenyl)-4,4-dimethylcyclohex-1-en-1-yl]methyl}piperazin-1-yl)benzamide], the “Binding selectivity ratio” value was 782.52.

As to `CN(C)CC(=O)N1CCO[C@H](COc2ncc(S(=O)(=O)NC(=O)c3ccc(N4CCN(CC5=C(c6ccc(Cl)cc6)CC(C)(C)CC5)CC4)cc3Oc3cccc4[nH]ncc34)cc2Cl)C1` [EXAMPLE 425, N-[(5-chloro-6-{[(2S)-4-(N,N-dimethylglycyl)morpholin-2-yl]methoxy}pyridin-3-yl)sulfonyl]-4-(4-{[2-(4-chlorophenyl)-4,4-dimethylcyclohex-1-en-1-yl]methyl}piperazin-1-yl)-2-(1H-indazol-4-yloxy)benzamide], the “Binding selectivity ratio” value is recorded as 1282.

`CC1(C)CCC(CN2CCN(c3ccc(C(=O)NS(=O)(=O)c4cnc(OCC5CCOCC5)c(Cl)c4)c(Oc4cccc5[nH]ncc45)c3)CC2)=C(c2ccc(Cl)cc2)C1` [EXAMPLE 427, 4-(4-{[2-(4-chlorophenyl)-4,4-dimethylcyclohex-1-en-1-yl]methyl}piperazin-1-yl)-N-{[5-chloro-6-(tetrahydro-2H-pyran-4-ylmethoxy)pyridin-3-yl]sulfonyl}-2-(1H-indazol-4-yloxy)benzamide]: the “Binding selectivity ratio” value is 34408.55031.

In the case of `CC1(C)CCC(CN2CCN(c3ccc(C(=O)NS(=O)(=O)c4ccc(N[C@@H]5CCN(CC#N)C5)c([N+](=O)[O-])c4)c(Oc4cccc5[nH]cnc45)c3)CC2)=C(c2ccc(Cl)cc2)C1` [EXAMPLE 428, 2-(1H-benzimidazol-4-yloxy)-4-(4-{[2-(4-chlorophenyl)-4,4-dimethylcyclohex-1-en-1-yl]methyl}piperazin-1-yl)-N-[(4-{[(3R)-1-(cyanomethyl)pyrrolidin-3-yl]amino}-3-nitrophenyl)sulfonyl]benzamide], the “Binding selectivity ratio” value stood at 5832.

For the compound `COCCOCCN1CC[C@@H](Nc2ccc(S(=O)(=O)NC(=O)c3ccc(N4CCN(CC5=C(c6ccc(Cl)cc6)CC(C)(C)CC5)CC4)cc3Oc3cccc4[nH]cnc34)cc2[N+](=O)[O-])C1` [EXAMPLE 429, 2-(1H-benzimidazol-4-yloxy)-4-(4-{[2-(4-chlorophenyl)-4,4-dimethylcyclohex-1-en-1-yl]methyl}piperazin-1-yl)-N-{[4-({(3R)-1-[2-(2-methoxyethoxy)ethyl]pyrrolidin-3-yl}amino)-3-nitrophenyl]sulfonyl}benzamide], the “Binding selectivity ratio” value is on record as 140.65.

As for `CN(C)CC(=O)N1CC[C@@H](Nc2ccc(S(=O)(=O)NC(=O)c3ccc(N4CCN(CC5=C(c6ccc(Cl)cc6)CC(C)(C)CC5)CC4)cc3Oc3cccc4[nH]cnc34)cc2[N+](=O)[O-])C1` [EXAMPLE 430, 2-(1H-benzimidazol-4-yloxy)-4-(4-{[2-(4-chlorophenyl)-4,4-dimethylcyclohex-1-en-1-yl]methyl}piperazin-1-yl)-N-[(4-{[(3R)-1-(N,N-dimethylglycyl)pyrrolidin-3-yl]amino}-3-nitrophenyl)sulfonyl]benzamide], the “Binding selectivity ratio” value is on record as 99.767.

Turning to `CC1(C)CCC(CN2CCN(c3ccc(C(=O)NS(=O)(=O)c4ccc(NCC5CN(CC#N)CCO5)c([N+](=O)[O-])c4)c(Oc4cccc5[nH]cnc45)c3)CC2)=C(c2ccc(Cl)cc2)C1` (stereo not drawn) [EXAMPLE 431, 2-(1H-benzimidazol-4-yloxy)-4-(4-{[2-(4-chlorophenyl)-4,4-dimethylcyclohex-1-en-1-yl]methyl}piperazin-1-yl)-N-{[4-({[4-(cyanomethyl)morpholin-2-yl]methyl}amino)-3-nitrophenyl]sulfonyl}benzamide], the “Binding selectivity ratio” value was found to be 677.36.
